Results reported in patent US8236556B2, “Method of modulating gene expression using an ecdysone receptor-based inducible gene expression system” (Intrexon Corporation, priority 2001, dated 2012).

T1: GAL4DmEcR-DEF (Drosophila melanogaster, UniProt P34021)
T1 construct: The D, E, and F domains from fruit fly Drosophila melanogaster EcR; expressed in transfected cells; host or cells: mouse NIH3T3 cells
T1 sequence (P34021 330-878): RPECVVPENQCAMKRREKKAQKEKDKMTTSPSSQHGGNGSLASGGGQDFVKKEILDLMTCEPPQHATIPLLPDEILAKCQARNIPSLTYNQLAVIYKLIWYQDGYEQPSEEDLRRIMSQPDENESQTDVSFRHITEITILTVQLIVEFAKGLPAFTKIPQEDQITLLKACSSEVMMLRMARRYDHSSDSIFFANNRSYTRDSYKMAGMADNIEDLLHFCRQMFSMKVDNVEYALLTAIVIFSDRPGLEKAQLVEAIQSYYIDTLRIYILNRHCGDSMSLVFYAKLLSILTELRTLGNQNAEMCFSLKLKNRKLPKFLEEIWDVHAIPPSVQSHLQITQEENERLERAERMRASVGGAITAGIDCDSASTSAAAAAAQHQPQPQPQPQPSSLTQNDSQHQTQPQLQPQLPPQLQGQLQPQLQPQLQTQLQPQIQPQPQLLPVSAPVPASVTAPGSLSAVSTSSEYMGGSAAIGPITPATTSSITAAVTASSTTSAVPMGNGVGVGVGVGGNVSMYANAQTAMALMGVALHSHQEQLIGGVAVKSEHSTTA


Assays:
GAL4CfEcR-DEF [1] = test: Transactivation of pFRLuc in NIH3T3 cells, VP16 RXR/USP constructs in partnership with GAL4CfEcR-DEF (FIG. 6); format: cell-based, Choristoneura fumiferana; settings: for sensitivity of the switch to steroid versus non-steroid ligand: CfEcR/chimeric RXR-based switch (switch 1.13)
Description: (§1) Transfections: DNAs corresponding to the various switch constructs outlined in Example 1, specifically switches 1.1 through 1.6 were transfected into mouse NIH3T3 cells (ATCC) and human A549 cells (ATCC) as follows. […] NIH3T3 cells were grown in Dulbecco's modified Eagle medium (DMEM; LifeTechnologies) and A549 cells were grown in F12K nutrient mixture (LifeTechnologies). […] The cells were harvested and reporter activity was assayed. […] Reporter Assays: Cells were harvested 48 hours after adding ligands. […] Twenty μl of lysate were assayed. […] Thus, Applicants have made the surprising discovery that a chimeric RXR ligand binding domain may be used in place of a vertebrate RXR or an invertebrate RXR in an EcR-based inducible gene expression modulation system.
(§2) This Example describes the construction of four EcR-DEF-based gene switches comprising the DEF domains from Choristoneura fumiferana (Lepidoptera), Drosophila melanogaster (Diptera), Tenebrio molitor (Coleoptera), and Amblyomma americanum (Ixodidae) fused to a GAL4 DNA binding domain. In addition, the EF domains of vertebrate RXRs, invertebrate RXRs, or invertebrate USPs from Choristoneura fumiferana USP, Drosophila melanogaster USP, Locusta migratoria USP (Orthoptera), Mus musculus RXRα (Vertebrata), a chimera between MmRXRα and LmUSP (Chimera; of switch 1.13), Amblyomma americanum RXR homolog 1 (Ixodidae), Amblyomma americanum RXR homolog 2 (Ixodidae) were fused to a VP16 activation domain. […] The cells were harvested, lysed and luciferase reporter activity was measured in the cell lysates. Total fly luciferase relative light units are presented. […] The analysis was performed in triplicate and mean luciferase counts [total relative light units (RLU)] were determined as described above.

GAL4DmEcR-DEF = target: T1, GAL4DmEcR-DEF; format: cell-based; settings: NIH3T3 cells; for sensitivity of the switch to steroid versus non-steroid ligand: DmEcR/chimeric RXR-based switch (switch 1.20)
Description: as §1, §2

[2] = tested on: TmEcR/chimeric RXR-based switch (switch 1.21); test: Transactivation of pFRLuc in NIH3T3 cells, TmEcR with chimeric RXR-EF (FIG. 8); format: cell-based, Tenebrio molitor; settings: switch 1.21, NIH3T3 cells
Description: as §1
(§3) This Example describes the construction of four EcR-DEF-based gene switches comprising the DEF domains from Choristoneura fumiferana (Lepidoptera), Drosophila melanogaster (Diptera), Tenebrio molitor (Coleoptera), and Amblyomma americanum (Ixodidae) fused to a GAL4 DNA binding domain. […] The cells were harvested, lysed and luciferase reporter activity was measured in the cell lysates. […] The analysis was performed in triplicate and mean luciferase counts [total relative light units (RLU)] were determined as described above.

[3] = tested on: AmaEcR/chimeric RXR-based switch (switch 1.22); test: Transactivation of pFRLuc in NIH3T3 cells, AmaEcR with chimeric RXR-EF (FIG. 8); format: cell-based, Amblyomma americanum; settings: switch 1.22, NIH3T3 cells
Description: as §1, §3

GAL4CfEcR-DEF [4] = test: HsRXRβ/LmUSP chimeric RXR LBDs with GAL4CfEcR-DEF and pFRLuc in NIH3T3 cells (FIGS. 9 and 10); format: cell-based, Choristoneura fumiferana; settings: CfEcR in combination with chimera 11, FIG. 10
Description: This Example describes Applicants' further analysis of gene expression cassettes encoding various chimeric RXR polypeptides comprising a mouse RXRα isoform polypeptide fragment or a human RXRβ isoform polypeptide fragment and an LmUSP polypeptide fragment in mouse NIH3T3 cells.
Three individual clones of each chimeric RXR LBD of Table 1 were transfected into mouse NIH3T3 cells along with either GAL4CfEcR-DEF (switches 1.25-1.29 of Example 1; FIGS. 9 and 10) or GAL4DmEcR-DEF (switches 1.30-1.34 of Example 1; FIG. 11) and the reporter plasmid pFRLuc as described above. The transfected cells were cultured in the presence of either a) 0, 0.2, 1, or 10 μM non-steroidal ligand (FIG. 9), or b) 0, 0.2, 1, or 10 μM steroid ligand PonA or 0, 0.4, 0.2, 1, or 10 μM non-steroid ligand (FIGS. 10 and 11) for 48 hours. The reporter gene activity was measured and total RLU are shown. The number on top of each bar is the maximum fold induction for that treatment and is the mean of three replicates.

[5] = tested on: GAL4CfEcR-DEF/VP16HsRXRβ-(1-8)-LmUSP-(9-12)-EF (βchimera 9; switch 1.27) gene switch; test: Effect of 9-cis-retinoic acid as second ligand on transactivation of switch 1.27 in NIH3T3 cells (FIG. 12); format: cell-based, Choristoneura fumiferana; settings: 0.04 μM non-steroid ligand, absence of 9-cis-retinoic acid
Description: In particular, Applicants have determined the effect of 9-cis-retinoic acid on the transactivation potential of the GAL4CfEcR-DEF/VP16HsRXRβ-(1-8)-LmUSP-(9-12)-EF (βchimera 9; switch 1.27) gene switch along with pFRLuc in NIH 3T3 cells in the presence of non-steroid (GSE) for 48 hours.
Briefly, GAL4CfEcR-DEF, pFRLuc and VP16HsRXRβ-(1-8)-LmUSP-(9-12)-EF (chimera #9) were transfected into NIH3T3 cells and the transfected cells were treated with 0, 0.04, 0.2, 1, 5 and 25 μM non-steroidal ligand (GSE) and 0, 1, 5 and 25 μM 9-cis-retinoic acid (Sigma Chemical Company). The reporter activity was measured at 48 hours after adding ligands.

Molecule | sensitivity of the switch to steroid versus non-steroid ligand (GAL4CfEcR-DEF [1]) | sensitivity of the switch to steroid versus non-steroid ligand (GAL4DmEcR-DEF) | sensitivity of the switch to ligand [2] | sensitivity of the switch to ligand [3] | response of EcR to ligand (GAL4CfEcR-DEF [4]) | induction [5] | fold induction (GAL4CfEcR-DEF [1]; partner for CfEcR, FIG. 6) | fold induction (GAL4DmEcR-DEF; partner for DmEcR, FIG. 7) [fold]
CC(C)CC[C@@H](O)[C@](C)(O)[C@H]1CC[C@@]2(O)C3=CC(=O)[C@@H]4C[C@@H](O)[C@@H](O)C[C@]4(C)[C@H]3CC[C@]12C [PonA, ponasterone A] | more sensitive to non-steroid than PonA | more sensitive to PonA than non-steroid | more sensitive to PonA | more sensitive to PonA | responded well to non-steroid but not to PonA |  |  | 
CCc1c(OC)cccc1C(=O)NN(C(=O)c1cc(C)cc(C)c1)C(C)(C)C [non-steroid, N-(2-ethyl-3-methoxybenzoyl)-N′-(3,5-dimethylbenzoyl)-N′-tert-butylhydrazine] | more sensitive to non-steroid than PonA | more sensitive to PonA than non-steroid | less sensitive to non-steroid | less sensitive to non-steroid | responded well to non-steroid but not to PonA | very little induction |  | 
MmRXRα-LmUSP chimera: chimeric RXR LBD: helices 1-7 of MmRXRα-EF and helices 8-12 of LmUSP-EF (SEQ ID NO: 45), fused to VP16 (protein) MGPKKKRKVAPPTDVSLGDELHLDGEDVAMAHADALDDFDLDMLGDGDSPGPGFTPHDSAPYGALDMADFEFEQMFTDALGIDEYGGEFPANEDMPVEKILEAELAVEPKTETYVEANMGLNPSSPNDPVTNICQAADKQLFTLVEWAKRIPHFSELPLDDQVILLRAGWNELLIASFSHRSIAVKDGILLATGLHVHRNSAHSAGVGAIFDRVLTELVSKMRDMQMDKTELGCLRSVILFNPEVRGLKSAQEVELLREKVYAALEEYTRTTHPDEPGRFAKLLLRLPSLRSIGLKCLEHLFFFRLIGDVPIDTFLMEMLESPSDS |  |  |  |  |  |  | 11,000 fold | 1759
